US20240360157A1, “TYK2 INHIBITORS” (BIOGEN MA INC., priority 2021, published 2024)
Where a name gives a salt, the structure may show the parent alone.

Columns and labels:
Format in all cases: biochemical
[1] = target: human TYK2 catalytic kinase (JH1) domain (Homo sapiens (Human), UniProt P29597); experiment: ADP-Glo Kinase Assay, recombinant TYK2 catalytic kinase (JH1) domain; details: recombinant JH1 domain 2 nM, 10 μM ATP, JAK3-974 peptide, mean, read-out: TYK2 biochem IC50 (nM) Mean
Method in brief: (§1)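 ADP-Glo luminescence with 50 μM peptide and 100 min reactions: JAK1 4 nM with JAK3-342 peptide; JAK2, JAK3 and TYK2 at 0.2, 0.3 and 2 nM with JAK3-974 peptide. Compounds tested from 10 or 1 μM top, 11 points, 3-fold. IC50 from a 4-parameter logistic fit of normalized activity.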

[2] = target: human JAK1 catalytic kinase (JH1) domain (Homo sapiens (Human), UniProt P23458); experiment: ADP-Glo Kinase Assay, recombinant JAK1 catalytic kinase (JH1) domain; details: recombinant JH1 domain 4 nM, 35 μM ATP, JAK3-342 peptide, mean, read-out: JAK1 biochem IC50 (nM) Mean
Sequence of human JAK1 catalytic kinase (JH1) domain (P23458 875-1153): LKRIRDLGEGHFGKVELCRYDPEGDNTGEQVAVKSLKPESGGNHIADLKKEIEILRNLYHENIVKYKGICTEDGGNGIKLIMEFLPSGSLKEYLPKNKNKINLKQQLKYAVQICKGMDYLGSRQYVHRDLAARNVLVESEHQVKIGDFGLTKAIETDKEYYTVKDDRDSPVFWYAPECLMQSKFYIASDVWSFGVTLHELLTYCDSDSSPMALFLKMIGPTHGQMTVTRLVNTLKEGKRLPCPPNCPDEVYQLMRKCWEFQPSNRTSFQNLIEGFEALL
Method in brief: as §1

[3] = target: human JAK2 catalytic kinase (JH1) domain (Homo sapiens (Human), UniProt O60674); experiment: ADP-Glo Kinase Assay, recombinant JAK2 catalytic kinase (JH1) domain; details: recombinant JH1 domain 0.2 nM, 15 μM ATP, JAK3-974 peptide, mean, read-out: JAK2 biochem IC50 (nM) Mean
Sequence of human JAK2 catalytic kinase (JH1) domain (O60674 849-1124): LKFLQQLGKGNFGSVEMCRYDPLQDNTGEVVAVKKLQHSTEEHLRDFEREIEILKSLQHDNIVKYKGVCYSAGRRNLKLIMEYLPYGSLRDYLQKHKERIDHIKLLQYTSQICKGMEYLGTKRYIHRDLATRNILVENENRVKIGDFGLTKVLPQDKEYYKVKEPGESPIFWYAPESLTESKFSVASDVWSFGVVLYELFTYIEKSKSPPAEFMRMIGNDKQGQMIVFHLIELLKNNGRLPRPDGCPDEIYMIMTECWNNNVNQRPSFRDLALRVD
Method in brief: as §1

[4] = target: human JAK3 catalytic kinase (JH1) domain (Homo sapiens (Human), UniProt P52333); experiment: ADP-Glo Kinase Assay, recombinant JAK3 catalytic kinase (JH1) domain; details: recombinant JH1 domain 0.3 nM, 4 μM ATP, JAK3-974 peptide, mean, read-out: JAK3 biochem IC50 (nM) Mean
Sequence of human JAK3 catalytic kinase (JH1) domain (P52333 822-1111): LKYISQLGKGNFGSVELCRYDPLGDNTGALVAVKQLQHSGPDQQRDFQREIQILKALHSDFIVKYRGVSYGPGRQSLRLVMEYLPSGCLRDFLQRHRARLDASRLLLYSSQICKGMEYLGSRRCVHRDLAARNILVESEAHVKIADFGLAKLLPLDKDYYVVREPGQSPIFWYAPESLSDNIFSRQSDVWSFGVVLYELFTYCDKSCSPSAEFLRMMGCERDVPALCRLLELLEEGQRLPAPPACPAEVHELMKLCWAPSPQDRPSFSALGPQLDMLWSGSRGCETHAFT
Method in brief: as §1

Sequence of human TYK2 catalytic kinase (JH1) domain (P29597 897-1176): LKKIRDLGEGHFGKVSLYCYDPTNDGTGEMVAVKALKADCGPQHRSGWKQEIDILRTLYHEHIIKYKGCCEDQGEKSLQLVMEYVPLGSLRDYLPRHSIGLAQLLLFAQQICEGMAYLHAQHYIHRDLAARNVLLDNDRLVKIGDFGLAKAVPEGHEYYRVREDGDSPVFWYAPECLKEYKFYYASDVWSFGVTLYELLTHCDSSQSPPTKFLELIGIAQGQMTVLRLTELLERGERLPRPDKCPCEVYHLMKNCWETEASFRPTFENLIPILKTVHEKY

Row | Compound | IC50 [1] [nM] | IC50 [2] [nM] | IC50 [3] [nM] | IC50 [4] [nM]
1 | Cn1cc(-c2cc3c(N4CC5CCC(C4)N5C(=O)[C@@H]4C[C@H]4F)ncnn3c2)cn1 [Example 2, ((1S,2R)-2-fluorocyclopropyl)(3-(6-(1-methyl-1H-pyrazol-4-yl)pyrrolo[2,1-f][1,2,4]triazin-4-yl)-3,8-diazabicyclo[3.2.1]octan-8-yl)methanone] | 4.7 | 324 | 292 | 820
2 | O=C(C1CC1)N1C2CCC1CN(c1ncnn3cc(-c4cnn([C@H]5CCOC5)c4)cc13)C2 [Example 157, cyclopropyl(3-(6-(1-((S)-tetrahydrofuran-3-yl)-1H-pyrazol-4-yl)pyrrolo[2,1-f][1,2,4]triazin-4-yl)-3,8-diazabicyclo[3.2.1]octan-8-yl)methanone] | 151 | 1380 | 2270 | 2250
3 | O=C([C@H]1C[C@H]1F)N1C2CCC1CN(c1ncnn3cc(-c4cnn(C(F)F)c4)cc13)C2 (single isomer, unassigned) [Example 73] | 987 | 2350 | ≥ 10000 | 8860
4 | Cn1cc(-c2cc3c(N4CC5CCC(C4)N5C(=O)C4(F)CC4)ncnn3c2)cn1 [Example 64, (1-fluorocyclopropyl)(3-(6-(1-methyl-1H-pyrazol-4-yl)pyrrolo[2,1-f][1,2,4]triazin-4-yl)-3,8-diazabicyclo[3.2.1]octan-8-yl)methanone] | 289 | 1150 | 5210 | 1110
5 | O=C([C@@H]1C[C@H]1F)N1C2CCC1CN(c1ccnc3[nH]c(N4CCOCC4)nc13)C2 [Example 212, ((1S,2R)-2-fluorocyclopropyl)(3-(2-morpholino-3H-imidazo[4,5-b]pyridin-7-yl)-3,8-diazabicyclo[3.2.1]octan-8-yl)methanone] | 30.5 | 322 | 650 | 4220
6 | O=C([C@@H]1C[C@H]1F)N1C2CCC1CN(c1ccnc3[nH]c(C4CCOC4)nc13)C2 (stereo partly drawn) [Example 211, ((1S,2R)-2-fluorocyclopropyl)(3-(2-(tetrahydrofuran-3-yl)-3H-imidazo[4,5-b]pyridin-7-yl)-3,8-diazabicyclo[3.2.1]octan-8-yl)methanone] | 676 | 5780 | 10000 | 10000
7 | Cc1ccc(-c2cc3c(N4CC5CCC(C4)N5C(=O)[C@@H]4C[C@H]4F)ncnc3[nH]2)cn1 [Example 224, ((1S,2R)-2-fluorocyclopropyl)(3-(6-(6-methylpyridin-3-yl)-7H-pyrrolo[2,3-d]pyrimidin-4-yl)-3,8-diazabicyclo[3.2.1]octan-8-yl)methanone] | 19.2 | 234 | 462 | 1100
8 | O=C(C1CC1)N1C2CCC1CN(c1ncnn3cc(-c4ccc5nncn5c4)cc13)C2 [Example 184] | 230 | 2340 | 7480 | 6270
9 | Cc1ccc(-c2cc3c(N4CC5CCC(C4)N5C(=O)[C@@H]4C[C@H]4F)ncnn3c2)cn1 [Example 92, ((1S,2R)-2-fluorocyclopropyl)(3-(6-(6-methylpyridin-3-yl)pyrrolo[2,1-f][1,2,4]triazin-4-yl)-3,8-diazabicyclo[3.2.1]octan-8-yl)methanone] | 42.2 | 744 | 1160 | 4820
10 | Cn1cc(-c2cc3c(N4CC5CCC(C4)N5C(=O)C4CC4)ccnc3[nH]2)cn1 [Example 236, cyclopropyl(3-(2-(1-methyl-1H-pyrazol-4-yl)-1H-pyrrolo[2,3-b]pyridin-4-yl)-3,8-diazabicyclo[3.2.1]octan-8-yl)methanone] | 3.8 | 145 | 99 | 253
11 | CC(C(=O)N1C2CCC1CN(c1ncnn3cc(-c4cnn(C(F)F)c4)cc13)C2)C(F)(F)F (stereo not drawn) [Example 31, 1-(3-(6-(1-(difluoromethyl)-1H-pyrazol-4-yl)pyrrolo[2,1-f][1,2,4]triazin-4-yl)-3,8-diazabicyclo[3.2.1]octan-8-yl)-3,3,3-trifluoro-2-methylpropan-1-one trifluoroacetate] | 193 | 1480 | 4460 | 6320
12 | O=C([C@@H]1C[C@H]1F)N1C2CCC1CN(c1ccnc3[nH]c(C4CCC4)nc13)C2 [Example 209, (3-(2-cyclobutyl-3H-imidazo[4,5-b]pyridin-7-yl)-3,8-diazabicyclo[3.2.1]octan-8-yl)((1S,2R)-2-fluorocyclopropyl)methanone] | 358 | 1710 | 8500 | 8590
13 | O=C([C@@H]1C[C@H]1F)N1C2CCC1CN(c1ccnn3cc(-c4ccnc(N5CC(F)(F)C5)c4)cc13)C2 [Example 120, (3-(6-(2-(3,3-difluoroazetidin-1-yl)pyridin-4-yl)pyrrolo[1,2-b]pyridazin-4-yl)-3,8-diazabicyclo[3.2.1]octan-8-yl)((1S,2R)-2-fluorocyclopropyl)methanone] | 85.2 | 1650 | 636 | 10000
14 | Cn1cc(-c2nc3c(N4CC5CCC(C4)N5C(=O)[C@@H]4C[C@H]4F)ccnc3[nH]2)c(F)n1 [Example 216, (3-(2-(3-fluoro-1-methyl-1H-pyrazol-4-yl)-3H-imidazo[4,5-b]pyridin-7-yl)-3,8-diazabicyclo[3.2.1]octan-8-yl)((1S,2R)-2-fluorocyclopropyl)methanone] | 1.9 | 41 | 14 | 235
15 | O=C([C@@H]1C[C@H]1F)N1C2CCC1CN(c1ncnc3[nH]c(-c4ccnnc4)cc13)C2 [Example 234, ((1S,2R)-2-fluorocyclopropyl)(3-(6-(pyridazin-4-yl)-7H-pyrrolo[2,3-d]pyrimidin-4-yl)-3,8-diazabicyclo[3.2.1]octan-8-yl)methanone] | 28.6 | 388 | 598 | 3200
16 | Cn1cc(-c2nc3c(N4CC5CCC(C4)N5C(=O)[C@@H]4CC4(F)F)ccnc3[nH]2)cn1 [Example 201, ((S)-2,2-difluorocyclopropyl)(3-(2-(1-methyl-1H-pyrazol-4-yl)-3H-imidazo[4,5-b]pyridin-7-yl)-3,8-diazabicyclo[3.2.1]octan-8-yl)methanone] | 1.5 | 14 | 9 | 164
17 | O=C([C@H]1C[C@H](C(F)(F)F)C1)N1C2CCC1CN(c1ncnn3cc(-c4cnn(C(F)F)c4)cc13)C2 [Example 28, (3-(6-(1-(difluoromethyl)-1H-pyrazol-4-yl)pyrrolo[2,1-f][1,2,4]triazin-4-yl)-3,8-diazabicyclo[3.2.1]octan-8-yl)((1r,3r)-3-(trifluoromethyl)cyclobutyl)methanone] | 636 | 2140 | 10000 | 10000
18 | N#CC1CC(C(=O)N2C3CCC2CN(c2ncnn4cc(-c5cnn(C(F)F)c5)cc24)C3)C1 (stereo not drawn) [Example 12, 3-(3-(6-(1-(difluoromethyl)-1H-pyrazol-4-yl)pyrrolo[2,1-f][1,2,4]triazin-4-yl)-3,8-diazabicyclo[3.2.1]octane-8-carbonyl)cyclobutane-1-carbonitrile] | 656 | 2980 | 7960 | 8350
19 | Cc1c(-c2cc3c(N4CC5CCC(C4)N5C(=O)C4CC4)ncnn3c2)cnn1C [Example 168] | 317 | 5470 | 7850 | 7690
20 | COc1cc(-c2cc3c(N4CC5CCC(C4)N5S(=O)(=O)C4CC4)ccnn3c2)ccn1 [Example 190] | 64.4 | 324 | 280 | 2750
21 | Cn1ncc(-c2cc3c(N4CC5CCC(C4)N5C(=O)[C@@H]4C[C@H]4F)ccnn3c2)c1F [Example 133, (3-(6-(5-fluoro-1-methyl-1H-pyrazol-4-yl)pyrrolo[1,2-b]pyridazin-4-yl)-3,8-diazabicyclo[3.2.1]octan-8-yl)((1S,2R)-2-fluorocyclopropyl)methanone] | 6 | 124 | 112 | 856
22 | COc1cc(-c2cc3c(N4CC5CCC(C4)N5S(=O)(=O)C4CC4)ncnc3[nH]2)ccn1 [Example 192] | 298 | 1860 | 3060 | 10000
23 | CC1(C(=O)N2C3CCC2CN(c2ncnn4cc(-c5cnn(C(F)F)c5)cc24)C3)CCC1 [Example 52, (3-(6-(1-(difluoromethyl)-1H-pyrazol-4-yl)pyrrolo[2,1-f][1,2,4]triazin-4-yl)-3,8-diazabicyclo[3.2.1]octan-8-yl)(1-methylcyclobutyl)methanone] | 425 | 6480 | 9080 | 9370
24 | N#Cc1cc(-c2cc3c(N4CC5CCC(C4)N5C(=O)[C@@H]4C[C@H]4F)ccnn3c2)ccn1 [Example 104, 4-(4-(8-((1S,2R)-2-fluorocyclopropane-1-carbonyl)-3,8-diazabicyclo[3.2.1]octan-3-yl)pyrrolo[1,2-b]pyridazin-6-yl)picolinonitrile] | 3.4 | 46 | 47 | 886
